The record followed here is the NIST ThermoML archive (doi:10.1021/je4001894).

Structures are written as SMILES. ± gives the expanded uncertainty stated by the source.

The data set can be described thus: activity coefficient (dimensionless); of the first substance listed, at infinite dilution; xn = mol fraction of the nth substance listed. Particulars: 101 kPa, Liquid, Chromatography, x1 = 0.

Regarding `Cc1ccccc1C` [1,2-dimethylbenzene] + CCCC[N+]1(C)CCCC1.O=S(=O)([N-]S(=O)(=O)C(F)(F)F)C(F)(F)F, the activity coefficient is 1.61 ± 0.11 (323.15 K), 1.64 ± 0.11 (333.15 K) and 1.66 ± 0.11 (343.15 K).

For the compound `Cc1ccccc1C` [1,2-dimethylbenzene] + CCC[N+]1(C)CCCC1.O=S(=O)([N-]S(=O)(=O)C(F)(F)F)C(F)(F)F, the activity coefficient by setting is: (323.15 K) 1.78 ± 0.12; (333.15 K) 1.83 ± 0.12; (343.15 K) 1.87 ± 0.13.

As to `Cc1cccc(C)c1` [1,3-dimethylbenzene] + CCCC[N+]1(C)CCCC1.O=S(=O)([N-]S(=O)(=O)C(F)(F)F)C(F)(F)F, the activity coefficient is, setting by setting: (323.15 K) 1.78 ± 0.12; (333.15 K) 1.8 ± 0.12; (343.15 K) 1.83 ± 0.12.

Regarding `Cc1cccc(C)c1` [1,3-dimethylbenzene] + CCC[N+]1(C)CCCC1.O=S(=O)([N-]S(=O)(=O)C(F)(F)F)C(F)(F)F, the activity coefficient was 1.97 ± 0.13 (323.15 K), 1.99 ± 0.14 (333.15 K) and 2.05 ± 0.14 (343.15 K).

With `Cc1ccc(C)cc1` [1,4-dimethylbenzene] + CCCC[N+]1(C)CCCC1.O=S(=O)([N-]S(=O)(=O)C(F)(F)F)C(F)(F)F, the activity coefficient came to 1.78 ± 0.12 (323.15 K), 1.8 ± 0.12 (333.15 K) and 1.81 ± 0.12 (343.15 K).

`Cc1ccc(C)cc1` [1,4-dimethylbenzene] + CCC[N+]1(C)CCCC1.O=S(=O)([N-]S(=O)(=O)C(F)(F)F)C(F)(F)F: the activity coefficient turned out to be 1.96 ± 0.13 (323.15 K), 2 ± 0.14 (333.15 K) and 2.03 ± 0.14 (343.15 K).

For the compound `C1COCCO1` [1,4-dioxane] + CCCC[N+]1(C)CCCC1.O=S(=O)([N-]S(=O)(=O)C(F)(F)F)C(F)(F)F, the activity coefficient was found to be 0.71 ± 0.05 (323.15 K), 0.72 ± 0.05 (333.15 K) and 0.72 ± 0.05 (343.15 K).

In the case of `C1COCCO1` [1,4-dioxane] + CCC[N+]1(C)CCCC1.O=S(=O)([N-]S(=O)(=O)C(F)(F)F)C(F)(F)F, the activity coefficient reads like this: (323.15 K) 0.74 ± 0.05; (333.15 K) 0.74 ± 0.05; (343.15 K) 0.76 ± 0.05.

On to `C#CCCCCC` [1-heptyne] + CCCC[N+]1(C)CCCC1.O=S(=O)([N-]S(=O)(=O)C(F)(F)F)C(F)(F)F, for which the activity coefficient is 3.98 ± 0.27 (323.15 K), 3.98 ± 0.27 (333.15 K) and 3.94 ± 0.27 (343.15 K).

On to `C#CCCCCC` [1-heptyne] + CCC[N+]1(C)CCCC1.O=S(=O)([N-]S(=O)(=O)C(F)(F)F)C(F)(F)F, for which the activity coefficient (323.15 K) was found to be 4.52 ± 0.31, the activity coefficient (333.15 K) is 4.52 ± 0.31 and the activity coefficient (343.15 K) turned out to be 4.51 ± 0.31.

Turning to `C#CCCCC` [1-hexyne] + CCCC[N+]1(C)CCCC1.O=S(=O)([N-]S(=O)(=O)C(F)(F)F)C(F)(F)F, the activity coefficient worked out at 2.89 ± 0.2 (323.15 K), 2.87 ± 0.2 (333.15 K) and 2.83 ± 0.19 (343.15 K).

On to `C#CCCCC` [1-hexyne] + CCC[N+]1(C)CCCC1.O=S(=O)([N-]S(=O)(=O)C(F)(F)F)C(F)(F)F, for which the activity coefficient came out at 3.35 ± 0.23 (323.15 K), 3.18 ± 0.22 (333.15 K) and 3.01 ± 0.2 (343.15 K).

Take `CCC[N+](=O)[O-]` [1-nitropropane] + CCCC[N+]1(C)CCCC1.O=S(=O)([N-]S(=O)(=O)C(F)(F)F)C(F)(F)F: the activity coefficient runs as follows: (323.15 K) 0.74 ± 0.05; (333.15 K) 0.73 ± 0.05; (343.15 K) 0.73 ± 0.05.

`CCC[N+](=O)[O-]` [1-nitropropane] + CCC[N+]1(C)CCCC1.O=S(=O)([N-]S(=O)(=O)C(F)(F)F)C(F)(F)F: the activity coefficient is, setting by setting: (323.15 K) 0.77 ± 0.05; (333.15 K) 0.77 ± 0.05; (343.15 K) 0.77 ± 0.05.

Regarding `CC(C)CC(C)(C)C` [2,2,4-trimethylpentane] + CCCC[N+]1(C)CCCC1.O=S(=O)([N-]S(=O)(=O)C(F)(F)F)C(F)(F)F, the activity coefficient by setting is: (323.15 K) 19.2 ± 1.3; (333.15 K) 17.9 ± 1.2; (343.15 K) 17.1 ± 1.2.

As for `CC(C)CC(C)(C)C` [2,2,4-trimethylpentane] + CCC[N+]1(C)CCCC1.O=S(=O)([N-]S(=O)(=O)C(F)(F)F)C(F)(F)F, the activity coefficient by setting is: (323.15 K) 22.5 ± 1.5; (333.15 K) 22 ± 1.5; (343.15 K) 21.6 ± 1.5.

On to `CC(C)CO` [2-methyl-1-propanol] + CCCC[N+]1(C)CCCC1.O=S(=O)([N-]S(=O)(=O)C(F)(F)F)C(F)(F)F, for which the activity coefficient reads like this: (323.15 K) 2.37 ± 0.16; (333.15 K) 2.12 ± 0.14; (343.15 K) 1.92 ± 0.13.

`CC(C)CO` [2-methyl-1-propanol] + CCC[N+]1(C)CCCC1.O=S(=O)([N-]S(=O)(=O)C(F)(F)F)C(F)(F)F: the activity coefficient is, setting by setting: (323.15 K) 2.51 ± 0.17; (333.15 K) 2.29 ± 0.16; (343.15 K) 2.1 ± 0.14.

On to `CCC(C)CC` [3-methylpentane] + CCCC[N+]1(C)CCCC1.O=S(=O)([N-]S(=O)(=O)C(F)(F)F)C(F)(F)F, for which the activity coefficient is, setting by setting: (323.15 K) 12.3 ± 0.84; (333.15 K) 11.9 ± 0.81; (343.15 K) 11 ± 0.75.

Regarding `CCC(C)CC` [3-methylpentane] + CCC[N+]1(C)CCCC1.O=S(=O)([N-]S(=O)(=O)C(F)(F)F)C(F)(F)F, the activity coefficient came to 14.3 ± 0.98 (323.15 K), 13.5 ± 0.92 (333.15 K) and 11.7 ± 0.8 (343.15 K).

For `CC#N` [acetonitrile] + CCCC[N+]1(C)CCCC1.O=S(=O)([N-]S(=O)(=O)C(F)(F)F)C(F)(F)F, the activity coefficient runs as follows: (323.15 K) 0.52 ± 0.04; (333.15 K) 0.51 ± 0.04; (343.15 K) 0.5 ± 0.04.

Turning to `c1ccccc1` [benzene] + CCCC[N+]1(C)CCCC1.O=S(=O)([N-]S(=O)(=O)C(F)(F)F)C(F)(F)F, the activity coefficient (323.15 K) turned out to be 0.92 ± 0.06, the activity coefficient (333.15 K) stood at 0.93 ± 0.06 and the activity coefficient (343.15 K) is 0.94 ± 0.06.

`c1ccccc1` [benzene] + CCC[N+]1(C)CCCC1.O=S(=O)([N-]S(=O)(=O)C(F)(F)F)C(F)(F)F: the activity coefficient is 0.99 ± 0.06 (323.15 K), 1.01 ± 0.06 (333.15 K) and 1.03 ± 0.06 (343.15 K).

`CCCCO` [butan-1-ol] + CCCC[N+]1(C)CCCC1.O=S(=O)([N-]S(=O)(=O)C(F)(F)F)C(F)(F)F: the activity coefficient stood at 2.59 ± 0.18 (323.15 K), 2.32 ± 0.16 (333.15 K) and 2.08 ± 0.14 (343.15 K).

As for `CCCCO` [butan-1-ol] + CCC[N+]1(C)CCCC1.O=S(=O)([N-]S(=O)(=O)C(F)(F)F)C(F)(F)F, the activity coefficient (323.15 K) turned out to be 2.79 ± 0.19, the activity coefficient (333.15 K) was determined as 2.35 ± 0.16 and the activity coefficient (343.15 K) was determined as 2.27 ± 0.15.

In the case of `CCC(C)=O` [butanone] + CCCC[N+]1(C)CCCC1.O=S(=O)([N-]S(=O)(=O)C(F)(F)F)C(F)(F)F, the activity coefficient (323.15 K) worked out at 0.54 ± 0.04, the activity coefficient (333.15 K) worked out at 0.5 ± 0.04 and the activity coefficient (343.15 K) came out at 0.46 ± 0.04.

As for `CCC(C)=O` [butanone] + CCC[N+]1(C)CCCC1.O=S(=O)([N-]S(=O)(=O)C(F)(F)F)C(F)(F)F, the activity coefficient reads like this: (323.15 K) 0.57 ± 0.04; (333.15 K) 0.58 ± 0.04; (343.15 K) 0.64 ± 0.04.

Consider `C1CCCCCC1` [cycloheptane] + CCCC[N+]1(C)CCCC1.O=S(=O)([N-]S(=O)(=O)C(F)(F)F)C(F)(F)F, for which the activity coefficient is, setting by setting: (323.15 K) 23.9 ± 1.6; (333.15 K) 32 ± 2.2; (343.15 K) 41.7 ± 2.9.

Turning to `C1CCCCCC1` [cycloheptane] + CCC[N+]1(C)CCCC1.O=S(=O)([N-]S(=O)(=O)C(F)(F)F)C(F)(F)F, the activity coefficient is 29.1 ± 2 (323.15 K), 43 ± 2.9 (333.15 K) and 54.7 ± 3.8 (343.15 K).

As for `C1CCCCC1` [cyclohexane] + CCCC[N+]1(C)CCCC1.O=S(=O)([N-]S(=O)(=O)C(F)(F)F)C(F)(F)F, the activity coefficient was 8.74 ± 0.6 (323.15 K), 7.96 ± 0.54 (333.15 K) and 7.59 ± 0.52 (343.15 K).

For the compound `C1CCCCC1` [cyclohexane] + CCC[N+]1(C)CCCC1.O=S(=O)([N-]S(=O)(=O)C(F)(F)F)C(F)(F)F, the activity coefficient was 10.2 ± 0.7 (323.15 K), 9.53 ± 0.65 (333.15 K) and 8.53 ± 0.58 (343.15 K).

`CCCCCCCCCC` [decane] + CCCC[N+]1(C)CCCC1.O=S(=O)([N-]S(=O)(=O)C(F)(F)F)C(F)(F)F: the activity coefficient reads like this: (323.15 K) 54.3 ± 3.7; (333.15 K) 49 ± 3.4; (343.15 K) 44.2 ± 3.

In the case of `CCCCCCCCCC` [decane] + CCC[N+]1(C)CCCC1.O=S(=O)([N-]S(=O)(=O)C(F)(F)F)C(F)(F)F, the activity coefficient runs as follows: (323.15 K) 74.7 ± 5.1; (333.15 K) 65.7 ± 4.5; (343.15 K) 60 ± 4.1.

For the compound `ClCCl` [dichloromethane] + CCCC[N+]1(C)CCCC1.O=S(=O)([N-]S(=O)(=O)C(F)(F)F)C(F)(F)F, the activity coefficient runs as follows: (323.15 K) 0.66 ± 0.05; (333.15 K) 0.7 ± 0.05; (343.15 K) 0.73 ± 0.05.

Turning to `ClCCl` [dichloromethane] + CCC[N+]1(C)CCCC1.O=S(=O)([N-]S(=O)(=O)C(F)(F)F)C(F)(F)F, the activity coefficient by setting is: (323.15 K) 0.66 ± 0.05; (333.15 K) 0.72 ± 0.05; (343.15 K) 0.78 ± 0.05.

Consider `CCOCC` [diethyl ether] + CCCC[N+]1(C)CCCC1.O=S(=O)([N-]S(=O)(=O)C(F)(F)F)C(F)(F)F, for which the activity coefficient by setting is: (323.15 K) 2.53 ± 0.17; (333.15 K) 2.54 ± 0.17; (343.15 K) 2.6 ± 0.18.

Turning to `CCOCC` [diethyl ether] + CCC[N+]1(C)CCCC1.O=S(=O)([N-]S(=O)(=O)C(F)(F)F)C(F)(F)F, the activity coefficient was 2.62 ± 0.18 (323.15 K), 2.7 ± 0.18 (333.15 K) and 2.75 ± 0.19 (343.15 K).

Consider `CC(C)OC(C)C` [diisopropyl ether] + CCCC[N+]1(C)CCCC1.O=S(=O)([N-]S(=O)(=O)C(F)(F)F)C(F)(F)F, for which the activity coefficient was 5.19 ± 0.35 (323.15 K), 5.28 ± 0.36 (333.15 K) and 5.4 ± 0.37 (343.15 K).

As for `CC(C)OC(C)C` [diisopropyl ether] + CCC[N+]1(C)CCCC1.O=S(=O)([N-]S(=O)(=O)C(F)(F)F)C(F)(F)F, the activity coefficient is, setting by setting: (323.15 K) 5.88 ± 0.4; (333.15 K) 5.75 ± 0.39; (343.15 K) 5.53 ± 0.38.
